Source: patent US6407217B1, “Imidazolinone haptens and antigens and enzyme conjugates prepared therefrom” (American Cyanamid Company, priority 1994, dated 2002)

Legend:
Format in all cases: binding, mouse
[1] = biological target: monoclonal antibody 1A5.5; assay: Indirect competitive enzyme immunoassay, monoclonal antibody 1A5.5; details: for I50 (half-maximal inhibition): MAb 1A5.5, coating antigen H
Description: (§1) An indirect enzyme immunoassay is used to screen for the production of anti-imidazolinone anti-bodies in the serum of the immunized mice and in cell fusion cultures. The method used is essentially the same as the method described by Voller, et al (Manual of Clinical Immunology, eds. N. Rose Friedman, H., pp. 506-512, 1976). For the indirect enzyme immunoassays, an antigen is adsorbed onto polystyrene flat bottom wells in 0.1M Na2CO3 buffer pH 9.6. Excess unbound material is washed away with buffer (PBS, containing 0.01M NaH2PO4—Na2HPO4 pH 7.6 with 0.05% TWEEN® 20 (a polyoxyethyene sorbitan monolaurate surpactantor Atlas chemical industries and 0.02% NaN3). A 0.05% gelatin solution prepared in PBS is used to block the sites unoccupied by the antigen to prevent non-specific binding of reagents. Antibody from serum or culture are added into the wells for binding to the bound antigen. The wells are washed and the amount of bound anitbody is determined by adding alkaline phosphatase-conjugated goat anti-mouse IgG (Boehringer) to the wells followed by the addition of a p-nitrophenyl phosphate solution for color development. The color intensity is determined spectrophotometrically and is used to determine the titers.
(§2) The bound antigen and imidazolinone compound compete for the antibody molecules. The wells are then washed and the color is developed as described above. In this assay, the color is inversely proportional to the amount of imidazolinone compound. In practice, standard curves are generated with known amounts of an imidazolinone compound and amounts present in test samples are calculated by interpolation.
(§3) Indirect competitive enzyme immunoassays for several imidazolinone compounds, using various monoclonal antibodies and antigens, are conducted according to the procedure described in Example 9. Antigens G and H are as described in Example 10 and Antigen I is shown below.

[2] = biological target: monoclonal antibody 1D2.6; assay: Indirect competitive enzyme immunoassay, monoclonal antibody 1D2.6
Description: as §1, §2, §3

[3] = biological target: monoclonal antibody 3A2.2; assay: Indirect competitive enzyme immunoassay, monoclonal antibody 3A2.2
Description: as §1, §2, §3

[4] = biological target: monoclonal antibody 3A5.1; assay: Indirect competitive enzyme immunoassay, monoclonal antibody 3A5.1
Description: as §1, §2, §3

[5] = biological target: monoclonal antibody 2C6.5; assay: Indirect competitive enzyme immunoassay, monoclonal antibody 2C6.5
Description: as §1, §2, §3

[6] = system: monoclonal antibody 3A2.2; assay: Direct competitive enzyme immunoassay with MAb 3A2.2 and alkaline phosphatase enzyme conjugate; details: mean of triplicate
Description: The monoclonal antibody 3A2.2 prepared in Example 10 and the enzyme conjugate prepared in Example 12 are used to establish a direct competitive enzyme immunoassay method for the determination of the concentration of imazapyr in samples. A constant amount of the monoclonal antibody 3A2.2 is adsorbed onto polystyrene plate wells through an affinity purified goat anti-mouse immunoglobulin which is previously adsorbed onto the polystyrene plate wells. The wells are washed with buffer (PBS, containing 0.01M NaH2PO4—Na2HPO4 pH 7.6 with 0.05% TWEEN® 20 (a polyoxyethylene sorbitan monolaurate surfactant of Atlas Chemical Industries and 0.02% NaN3) and blocked with a 0.05% gelatin solution prepared in PBS. Standard solutions having concentrations of imazapyr from 0 to 5,000 ng/mL are added to the blocked wells followed by the addition of the aforementioned enzyme conjugate.
After several minutes, the wells are washed and the color is developed by adding BRL alkaline phosphatase substrate amplification kit (commercially available from GIBCO BRL Life Technologies Inc., […], Md.). After several minutes, readings are taken for each well at 490 nm using a microwell reader.
A standard curve plot having the log of imazapyr concentration on the x-axis and the optical density reading at 490 nm (OD 490) on the Y-axis is used to determine unknown concentrations of imazapyr present in soil, water or plant samples from their OD 490 values.
The OD 490 readings for 6 imazapyr standard solutions and a solvent blank are obtained from a direct enzyme immunoassay experiment run in triplicate. The standard curve obtained by plotting the mean OD 490 reading versus the logarithm of the standard imazapyr concentration is used to determine unknown imazapyr concentrations from about 0.5 ng/mL to 500 ng/mL.

`CC(C)C1(C)N=C(c2nc3ccccc3cc2C(=O)O)NC1=O` (stereo not drawn) [Imazaquin, 2-(4-isopropyl-4-methyl-5-oxo-2-imidazolin-2-yl)-3-quinolinecarboxylic acid] was tested, and the “I50 (half-maximal inhibition)” value [1] was >1,000 ppb (ng/mL), the “I50 (half-maximal inhibition)” value ([2]; MAb 1D2.6, coating antigen G) was >10,000 ppb (ng/mL) and the “I50 (half-maximal inhibition)” value ([2]; MAb 1D2.6, coating antigen I) was 2,000 ppb (ng/mL). The “I50 (half-maximal inhibition)” value ([3]; MAb 3A2.2, coating antigen G) was 5 ppb (ng/mL), the “I50 (half-maximal inhibition)” value ([3]; MAb 3A2.2, coating antigen I) was 3 ppb (ng/mL) and the “I50 (half-maximal inhibition)” value ([4]; MAb 3A5.1, coating antigen I) was 800 ppb (ng/mL).

In the case of `Cc1cnc(C2=NC(C)(C(C)C)C(=O)N2)c(C(=O)O)c1` (stereo not drawn) [Imazamethapyr, 2-(4-isopropyl-4-methyl-5-oxo-2-imidazolin-2-yl)-5-methylnicotinic acid], the “I50 (half-maximal inhibition)” value [1] is reported as 100 ppb (ng/mL), the “I50 (half-maximal inhibition)” value ([2]; MAb 1D2.6, coating antigen G) is reported as >10,000 ppb (ng/mL) and the “I50 (half-maximal inhibition)” value ([2]; MAb 1D2.6, coating antigen I) is reported as 250 ppb (ng/mL). For the same compound, the “I50 (half-maximal inhibition)” value ([5]; MAb 2C6.5, coating antigen G) was 171 ppb (ng/mL), the “I50 (half-maximal inhibition)” value ([5]; MAb 2C6.5, coating antigen I) was 204 ppb (ng/mL) and the “I50 (half-maximal inhibition)” value ([3]; MAb 3A2.2, coating antigen G) was 31 ppb (ng/mL). The “I50 (half-maximal inhibition)” value ([3]; MAb 3A2.2, coating antigen I) was 27 ppb (ng/mL), the “I50 (half-maximal inhibition)” value ([4]; MAb 3A5.1, coating antigen G) was >1,000 ppb (ng/mL) and the “I50 (half-maximal inhibition)” value ([4]; MAb 3A5.1, coating antigen I) was 340 ppb (ng/mL).

For “mixture of methyl 6-(4-isopropyl-4-methyl-5-oxo-2-imidazolin-2-yl)-m-toluate and methyl 2-(4-isopropyl-4-methyl-5-oxo-2-imidazolin-2-yl)-p-toluate [Imazamethabenz-methyl]”, the “I50 (half-maximal inhibition)” value [1] was 500 ppb (ng/mL), the “I50 (half-maximal inhibition)” value ([2]; MAb 1D2.6, coating antigen G) was >10,000 ppb (ng/mL) and the “I50 (half-maximal inhibition)” value ([2]; MAb 1D2.6, coating antigen I) was 105 ppb (ng/mL). For the same compound, the “I50 (half-maximal inhibition)” value ([3]; MAb 3A2.2, coating antigen G) was 322 ppb (ng/mL), the “I50 (half-maximal inhibition)” value ([3]; MAb 3A2.2, coating antigen I) was 356 ppb (ng/mL) and the “I50 (half-maximal inhibition)” value ([4]; MAb 3A5.1, coating antigen G) was 400 ppb (ng/mL). The “I50 (half-maximal inhibition)” value ([4]; MAb 3A5.1, coating antigen I) was 90 ppb (ng/mL).

For `CC(C)C1(C)N=C(c2ncccc2C(=O)O)NC1=O` (stereo not drawn) [Imazapyr, 2-(4-isopropyl-4-methyl-5-oxo-2-imidazolin-2-yl)nicotinic acid], the “I50 (half-maximal inhibition)” value [1] was 500 ppb (ng/mL), the “I50 (half-maximal inhibition)” value ([2]; MAb 1D2.6, coating antigen G) was >10,000 ppb (ng/mL) and the “I50 (half-maximal inhibition)” value ([2]; MAb 1D2.6, coating antigen I) was >1,000 ppb (ng/mL). The “I50 (half-maximal inhibition)” value ([3]; MAb 3A2.2, coating antigen G) was 290 ppb (ng/mL), the “I50 (half-maximal inhibition)” value ([3]; MAb 3A2.2, coating antigen I) was 331 ppb (ng/mL) and the “I50 (half-maximal inhibition)” value ([4]; MAb 3A5.1, coating antigen I) was >5,000 ppb (ng/mL). For the same compound, the “OD 490 Reading” value ([6]; imazapyr 0.05 ng/mL) was 2.671, the “OD 490 Reading” value ([6]; imazapyr 0.50 ng/mL) was 2.507 and the “OD 490 Reading” value ([6]; imazapyr 5.0 ng/mL) was 1.893. The “OD 490 Reading” value ([6]; imazapyr 50 ng/mL) was 0.801, the “OD 490 Reading” value ([6]; imazapyr 500 ng/mL) was 0.474 and the “OD 490 Reading” value ([6]; imazapyr 5,000 ng/mL) was 0.446.

With `CCc1cnc(C2=NC(C)(C(C)C)C(=O)N2)c(C(=O)O)c1` (stereo not drawn) [Imazethapyr, 5-ethyl-2-(4-isopropyl-4-methyl-5-oxo-2-imidazolin-2-yl)nicotinic acid] the “affinity compared to the other imidazolinone compounds” value ([1]; MAb 1A5.5) was “greater affinity”, the “I50 (half-maximal inhibition)” value [1] was 60 ppb (ng/mL) and the “affinity compared to the other imidazolinone compounds” value ([2]; MAb 1D2.6) was “greater affinity”. For the same compound, the “I50 (half-maximal inhibition)” value ([2]; MAb 1D2.6, coating antigen G) was >10,000 ppb (ng/mL), the “I50 (half-maximal inhibition)” value ([2]; MAb 1D2.6, coating antigen I) was 20 ppb (ng/mL) and the “I50 (half-maximal inhibition)” value ([5]; MAb 2C6.5, coating antigen G) was 13 ppb (ng/mL). The “I50 (half-maximal inhibition)” value ([5]; MAb 2C6.5, coating antigen I) was 15 ppb (ng/mL), the “I50 (half-maximal inhibition)” value ([3]; MAb 3A2.2, coating antigen G) was 34 ppb (ng/mL) and the “I50 (half-maximal inhibition)” value ([3]; MAb 3A2.2, coating antigen I) was 21 ppb (ng/mL). The “I50 (half-maximal inhibition)” value ([4]; MAb 3A5.1, coating antigen G) was >1,000 ppb (ng/mL) and the “I50 (half-maximal inhibition)” value ([4]; MAb 3A5.1, coating antigen I) was 220 ppb (ng/mL).
